Experimental data published in the supplement of paper PMC10307832.

How the values were obtained:
Test in all cases: relative viability (nuclei count vs DMSO), 5 days (fraction); higher = more cells survive
GSK-J4 + Decitabine = compound: CCOC(=O)CCNc1cc(N2CCc3ccccc3CC2)nc(-c2ccccn2)n1 [GSK-J4] + Nc1ncn([C@H]2C[C@H](O)[C@@H](CO)O2)c(=O)n1 [Decitabine] (partner 2 µM)
Outline: (§1)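 One day after seeding in 1536-well plates, lung cancer cell lines were dosed by pin tool. Dosing was either single-drug or a fixed anchor-drug dose plus five library-drug doses (not always all listed) in √10 steps. After 5 days, nuclei were stained in one fix-and-stain step and counted on 4× images, and relative viability is the nuclei count of treated wells over that of vehicle wells, given as the median of duplicate plates.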

AZ3146 + Linsitinib = compound: CN1CCC(CC1)OC2=CC(=C(C=C2)NC3=NC=C4C(=N3)N(C(=O)N4C)C5CCCC5)OC [AZ3146] + C[C@]1(O)C[C@@H](c2nc(-c3ccc4ccc(-c5ccccc5)nc4c3)c3c(N)nccn32)C1 [Linsitinib] (partner 1 µM)
Outline: as §1

AZ3146 + Vorinostat = compound: CN1CCC(CC1)OC2=CC(=C(C=C2)NC3=NC=C4C(=N3)N(C(=O)N4C)C5CCCC5)OC [AZ3146] + O=C(CCCCCCC(=O)Nc1ccccc1)NO [Vorinostat] (partner 1 µM)
Outline: as §1

AZ3146 + Olaparib = compound: CN1CCC(CC1)OC2=CC(=C(C=C2)NC3=NC=C4C(=N3)N(C(=O)N4C)C5CCCC5)OC [AZ3146] + O=C(c1cc(Cc2n[nH]c(=O)c3ccccc23)ccc1F)N1CCN(C(=O)C2CC2)CC1 [Olaparib] (partner 8 µM)
Outline: as §1

UMC-11
relative viability (GSK-J4 + Decitabine; first compound 0.5 µM): 0.93 | relative viability (GSK-J4 + Decitabine; first compound 1.581 µM): 0.642 | relative viability (GSK-J4 + Decitabine; first compound 15.81 µM): 0.582 | relative viability (GSK-J4 + Decitabine; first compound 50 µM): 0.343 | relative viability (AZ3146 + Linsitinib; first compound 0.08 µM): 0.989 | relative viability (AZ3146 + Linsitinib; first compound 0.253 µM): 1.05 | relative viability (AZ3146 + Linsitinib; first compound 0.8 µM): 0.992 | relative viability (AZ3146 + Linsitinib; first compound 2.53 µM): 0.922 | relative viability (AZ3146 + Linsitinib; first compound 8 µM): 0.577 | relative viability (AZ3146 + Vorinostat; first compound 0.08 µM): 0.299 | relative viability (AZ3146 + Vorinostat; first compound 0.253 µM): 0.389 | relative viability (AZ3146 + Vorinostat; first compound 0.8 µM): 0.406 | relative viability (AZ3146 + Vorinostat; first compound 2.53 µM): 0.267 | relative viability (AZ3146 + Vorinostat; first compound 8 µM): 0.175 | relative viability (AZ3146 + Olaparib; first compound 0.08 µM): 0.396 | relative viability (AZ3146 + Olaparib; first compound 0.253 µM): 0.405 | relative viability (AZ3146 + Olaparib; first compound 0.8 µM): 0.36 | relative viability (AZ3146 + Olaparib; first compound 2.53 µM): 0.326 | relative viability (AZ3146 + Olaparib; first compound 8 µM): 0.279
